Measurements taken from patent publication US20050244823A1, “Novel epitopes for celiac disease and autoimmune diseases, methods for detecting those and novel non-antigenic food compounds” (Academisch Ziekenhuis Leiden, priority 2002, published 2005).
Where no end group is shown, it is not given here. [ ]: non-standard residue; d: D form. Gln(vinylogous ester) = glutamine whose side-chain carboxamide is replaced by a vinylogous ester electrophilic trap (CO2Et)

Columns and labels:
[1] = molecular target: T1, tissue transglutaminase (tTG) (Cavia cutleri, UniProt P08587); assay: Inhibition of tTG induced deamidation of a substrate gluten peptide, mass spectrometric analysis; format: biochemical
T1 construct: purchased Sigma, Zwijndrecht, NL T-5398
T1 sequence (P08587 2-690 limits assumed): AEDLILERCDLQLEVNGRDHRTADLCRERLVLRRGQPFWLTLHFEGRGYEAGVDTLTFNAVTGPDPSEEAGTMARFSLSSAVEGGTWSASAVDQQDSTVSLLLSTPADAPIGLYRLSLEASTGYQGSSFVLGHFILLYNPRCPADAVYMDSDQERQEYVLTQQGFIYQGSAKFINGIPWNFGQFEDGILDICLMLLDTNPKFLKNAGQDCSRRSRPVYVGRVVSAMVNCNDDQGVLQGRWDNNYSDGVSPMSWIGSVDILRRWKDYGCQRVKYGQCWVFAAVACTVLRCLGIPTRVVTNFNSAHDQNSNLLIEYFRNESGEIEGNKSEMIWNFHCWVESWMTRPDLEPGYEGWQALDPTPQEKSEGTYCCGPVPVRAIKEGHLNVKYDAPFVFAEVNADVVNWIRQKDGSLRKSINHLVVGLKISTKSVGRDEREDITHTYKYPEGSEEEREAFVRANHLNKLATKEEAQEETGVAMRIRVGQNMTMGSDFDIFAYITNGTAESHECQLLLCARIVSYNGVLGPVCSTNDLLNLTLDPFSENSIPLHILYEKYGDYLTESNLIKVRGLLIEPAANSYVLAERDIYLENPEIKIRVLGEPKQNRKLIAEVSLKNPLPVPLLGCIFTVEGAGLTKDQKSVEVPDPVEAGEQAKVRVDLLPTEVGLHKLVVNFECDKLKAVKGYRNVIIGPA
Protocol: (§1) Peptides and tTG treatment. Peptides were synthesised by standard Fmoc chemistry on a multiple peptide synthesizer (SyroII, MultiSynTech GmbH, Witten, Germany). Integrity of synthetic peptides was checked by rpHPLC and mass spectrometry. Tissue transglutaminase (tTG) treatment was performed by incubating the peptides (500 μg/ml) with the enzyme (100 μg/ml, Sigma, Zwijndrecht, NL; T-5398) at 37° C. for 4 h minimum, in 50 mM triethylamine-acetate pH 6.5, 2 mM CaCl2.
(§2) Mass spectrometry. Electrospray ionisation mass spectrometry was performed on the synthetic gluten peptides before and after tTG treatment, using a Q-TOF hybrid mass spectrometer (Micromass, Manchester, UK). Precursor ions were selected with the quadrupole window set to 3 Da and fragments were collected with high efficiency with the orthogonal time of flight mass spectrometer. The collision gas applied was argon (pressure 4×10^−5 mbar) and the collision voltage approximately 30 V. Deamidation of glutamine residues in synthetic gluten peptides was determined by mass spectrometric analysis as described previously (van de Wal, 1998a). Deamidation of a glutamine residue results in an increase of 1 Da. These conversions were assigned to particular glutamine residues by comparison of the fragmentation spectra of tTG treated and non-treated peptides.

[2] = molecular target: T1, tissue transglutaminase (tTG); assay: tTG treatment of synthetic gluten peptides, deamidation determined by mass spectrometry; format: biochemical; conditions: for deamidation of glutamine residues by tTG: peptide 500 μg/ml, tTG 100 μg/ml, 37° C., 4 h minimum, pH 6.5
Protocol: as §1, §2

[3] = system: gluten specific T cell lines; assay: T cell proliferation assay with gluten specific T cell lines; format: cell-based, human; conditions: T cell line from small intestinal biopsy of celiac disease patient; antigen 1-10 μg/ml; positive = Stimulation Index>3
Protocol: T cell clones T cell lines. Gluten specific T cell lines were generated from small intestinal biopsies of celiac disease patients as described before (van de Wal, 1998a).
T cell proliferation assays. Proliferation assays were performed in duplicate in 150 μl RPMI1640 (Gibco, Breda, NL) supplemented with 10% human serum in 96-well flat-bottomed plates (Falcon) using 10^4 T cells stimulated with 10^5 irradiated PBMCs (3000 RAD) in the presence or absence of antigen (1-10 μg/ml). After 48 hours at 37° C., cultures were pulsed with 0.5 μCi of ^3H-thymidine and harvested 18 hours thereafter as described previously (van de Wal, 1998b).

[4] = molecular target: T1, tissue transglutaminase (tTG); conditions: earlier publications (van de Wal 1998a; Arentz-Hansen 2000); cited from earlier work
[5] = system: gluten specific T cell lines; conditions: Arentz-Hansen 2000; Anderson 2000; cited from earlier work
[6] = tTG-treated synthetic gluten peptide, mass spectrometry

For “first-generation inhibitor: biotinylated QPQLPYQ in which the carboxamide of glutamine at position 3 is replaced by a vinylogous ester electrophilic trap (CO2Et, FIG. 3) (QP[Gln(vinylogous ester)]LPYQ; also: biotinylated)”, the enzyme activity ([1]; 0.3 molar ratio of enzyme to inhibitor) was “completely abolished” and the “inhibition of deamidation of a substrate peptide” value ([1]; inhibitor mixed with the enzyme in an equimolar ratio) was “over 50%”.

In the case of LQQPQQ6PQFQPQQQF [Peptide 20], the “Rules QP ↓ (share of Q residues following the rule: Q preceding P not deamidated)” value [2, 6] is reported as 100%, the “Rules QXP ↑ (share of Q residues following the rule: P at Q+2 allows deamidation)” value [2, 6] is reported as 50% and the “Rules QXXF ↑ (share of Q residues following the rule: bulky/hydrophobic residue at Q+3 allows deamidation)” value [2, 6] is reported as 50%^. For the same substance, the “Rules QXXP ↓ (share of Q residues following the rule: P at Q+3 inhibits deamidation)” value [2, 6] was 100%.

For QFPQTQQPQQPFPQ [gluten-derived peptide], the “stimulation of gluten specific T cell lines (proliferation)” value (“stimulation” for short) [3] was “stimulate gluten specific T cell lines”.

With PSGQ208GSFQPSQQ216N the “deamidation of glutamine residues by tTG” value [2] was “only the Q208 is deamidated”.

In the case of “9: gluten peptide FPQHCNYQ[Q]QPQTFPQPF; [Q] = image character, presumably deamidated Q [Peptide 9]”, the “Rules QP ↓ (share of Q residues following the rule: Q preceding P not deamidated)” value [2, 6] is reported as 100%, the “Rules QXP ↑ (share of Q residues following the rule: P at Q+2 allows deamidation)” value [2, 6] is reported as 100% and the “Rules QXXP ↓ (share of Q residues following the rule: P at Q+3 inhibits deamidation)” value [2, 6] is reported as 100%.

In the case of QQPYPQQPQQPFPQ [gluten-derived peptide], the “stimulation” value [3] is reported as “stimulate gluten specific T cell lines”.

In the case of PFPQSQQPQQPFPQ [gluten-derived peptide], the “stimulation” value [3] is reported as “stimulate gluten specific T cell lines”.

For PFSQQQQLVL, the “deamidation of glutamine residues by tTG” value [2] was “all Q-residues are deamidated”.

For PFPQPQQPQQPFPQ [gluten-derived peptide], the “stimulation” value [3] was “stimulate gluten specific T cell lines”.

With PFPQLQQPQQPFPQ [gluten-derived peptide] the “stimulation” value [3] was “stimulate gluten specific T cell lines”.

For QPQLPYPQ, the “deamidation of glutamine residues by tTG / tTG substrate” value [4] is given as “known to be a tTG substrate”.

With PFSQQQQPV the “deamidation of glutamine residues by tTG” value [2] was “specifically and efficiently deamidated”.

In the case of QLQPFPQPQLPY, the “T cell stimulatory activity in celiac disease patients” value [5] is given as “immunodominant”.

In the case of PSGQ208GSFQPSQQ216NPQA, the “deamidation of glutamine residues by tTG / tTG substrate” value [4] is given as “Q208 and Q216 are deamidated by tTG, whereas positions Q212, Q215, and Q219 are not”.

In the case of PFPQTQQPQQPFPQ [gluten-derived peptide], the “stimulation” value [3] is reported as “stimulate gluten specific T cell lines”.

With QQPFPQQPQQPFPQ [gluten-derived peptide] the “stimulation” value [3] was “stimulate gluten specific T cell lines”.

With QLPFPQQPQQPFPQ [gluten-derived peptide] the “stimulation” value [3] was “stimulate gluten specific T cell lines”.
